According to ChEMBL document CHEMBL1150084, “Two Benzylated Dihydroflavonols from Cudrania tricuspidata” (1995):
Values after ≈ are worked out from the molar mass of the structure shown.

What was measured:
Assay type in all cases: functional
KM12 = assay: Cytotoxicity against human KM12 cells after 48 hrs by SRB assay; details: KM12, 48 h, read-out: ED50 (the source's name)
[1] = Cytotoxicity against human CRL1579 cells after 48 hrs by SRB assay; details: read-out: ED50 (the source's name)
LOX IMVI = assay: Cytotoxicity against human LOXIMVI cells after 48 hrs by SRB assay; details: read-out: ED50 (the source's name)
MOLT-4F = assay: Cytotoxicity against human MOLT4F cells after 48 hrs by SRB assay; details: read-out: ED50 (the source's name)
UO-31 = assay: Cytotoxicity against human UO31 cells after 48 hrs by SRB assay; details: UO-31, 48 h, read-out: ED50 (the source's name)

Row | SMILES | EC50 (KM12) [µg/mL] | EC50 [1] [µg/mL] | EC50 (LOX IMVI) [µg/mL] | EC50 (MOLT-4F) [µg/mL] | EC50 (UO-31) [µg/mL]
1 | COc1cccc2c1C(=O)c1c(O)c3c(c(O)c1C2=O)C[C@@](O)(C(=O)CO)C[C@@H]3O[C@H]1C[C@H](N)[C@H](O)[C@H](C)O1 [DOXORUBICIN] | 0.11 (≈ 0.202 µM) | 0.16 (≈ 0.294 µM) | 0.13 (≈ 0.239 µM) | 0.02 (≈ 0.0368 µM) | 0.3 (≈ 0.552 µM)
2 | O=C1c2c(O)c(Cc3ccc(O)cc3)c(O)c(Cc3ccc(O)cc3)c2O[C@H](c2ccc(O)cc2)[C@H]1O [GERICUDRANIN D] | 5 (≈ 9.99 µM) | 9.5 (≈ 19 µM) | 16.6 (≈ 33.2 µM) | 8.9 (≈ 17.8 µM) | 5.2 (≈ 10.4 µM)
3 | O=C1c2c(cc(O)c(Cc3ccc(O)cc3)c2O)O[C@H](c2ccc(O)cc2)[C@H]1O [GERICUDRANIN E] | 11.9 (≈ 30.2 µM) | 2.9 (≈ 7.35 µM) | 12.5 (≈ 31.7 µM) | 10.7 (≈ 27.1 µM) | 7.6 (≈ 19.3 µM)
